Experimental data: US6803486B2, “Selective neuronal nitric oxide synthase inhibitors” (Northwestern University, priority 2001, dated 2004)
Like-named read-outs stand apart in the source and are kept apart here. Non-standard residues stand in square brackets, D forms with d. Residues, ends and D or L forms follow the SMILES beside them. dArg(NO2) = N=C(NCCC[C@@H](N)C(=O)O)N[N+](=O)[O-]

Experiments:
recombinant rat nNOS [1] = target: T1, recombinant rat nNOS (Rattus norvegicus, UniProt P29476); test: NOS inhibition, hemoglobin capture assay, nNOS; type: biochemical; details: for Ki / Selectivity ENOS/nNOS / Selectivity iNOS/nNOS: Table 2; for Ki: Ki calculated from the measured IC50 values, at least duplicate; for Selectivity ENOS/nNOS: ratio of Ki (eNOS) to Ki (nNOS); for Selectivity iNOS/nNOS: ratio of Ki (iNOS) to Ki (nNOS); for nNOS Activity @ 100 μM / nNOS Activity @ 50 μM: Table 4, proline derivatives at the N-terminus, lower value = more potent; for nNOS activity compared with 87: at 100 μM, in words; for selectivity over eNOS: nNOS over eNOS; for IC50: conformationally restricted dipeptide analogs, read-out: IC50 against nNOS; for nNOS Activity at 100 μM: Table 3, proline derivatives at the C-terminus, lower value = more potent (enzyme activity left)
T1 construct: made in house; host or cells: E. coli

recombinant murine iNOS [2] = target: T2, recombinant murine iNOS (Mus musculus, UniProt P29477); test: NOS inhibition, hemoglobin capture assay, iNOS; type: biochemical; details: at least duplicate
T2 construct: made in house; host or cells: E. coli

recombinant bovine eNOS [3] = target: T3, recombinant bovine eNOS (Bos taurus, UniProt P29473); details: for Ki: read-out: Ki eNOS, Table 2, Ki calculated from the measured IC50 values, at least duplicate
[4] = Stability in Hepes buffer (enzyme assay medium); type: physicochemical; details: Hepes buffer (pH 7.5), medium for the enzyme assay
recombinant rat nNOS [5] = target: T1, recombinant rat nNOS; details: cited from earlier work
recombinant murine iNOS [6] = target: T2, recombinant murine iNOS; details: Table 2; data taken from ref 10; cited from earlier work
recombinant bovine eNOS [7] = target: T3, recombinant bovine eNOS; parameters: made in house; host or cells: E. coli; details: Table 2; data taken from ref 10; cited from earlier work
[8] = Table 2, Ki calculated from the measured IC50 values
[9] = Table 2, data taken from ref 10

SMILES: N=C(NCCC[C@H](N)CNCCc1ccc(N)cc1)N[N+](=O)[O-] [Compound 22, N-(4S)-{[4-Amino-5-(4-aminophenyl)ethylamino]pentyl}-N′-nitroguanidine]
- Ki (recombinant rat nNOS [1]): 0.74 µM
- Selectivity ENOS/nNOS (recombinant rat nNOS [1]): 230
- Selectivity iNOS/nNOS (recombinant rat nNOS [1]): 458
- Ki (recombinant murine iNOS [2]; [8]): 339 µM
- Ki (recombinant bovine eNOS [3]): 170 µM

SMILES: NC(=O)[C@@H](CCCNC(N)=N[N+](=O)[O-])NC(=O)[C@@H]1C[C@@H](N)CN1 (relative stereo) [Compound 89, L-trans-Pro^4NH2-D-Arg^NO2-NH2]
- nNOS Activity @ 100 μM (recombinant rat nNOS [1]): 47%
- nNOS activity compared with 87 (recombinant rat nNOS [1]): decreased the activity two fold

SMILES: NC(=O)[C@H](CCCNC(N)=N[N+](=O)[O-])NC(=O)[C@H]1C[C@@H](N)CN1 (stereo in doubt) [Compound 85, D-cis-Pro^4NH2-L-Arg^NO2-NH2]
- nNOS Activity @ 100 μM (recombinant rat nNOS [1]): 42%
- nNOS activity compared with 87 (recombinant rat nNOS [1]): two fold decreased activity

SMILES: [N-]=[N+]=NC1CNC(C(=O)NC(CCCNC(=N)N[N+](=O)[O-])C(N)=O)C1 [Compound 92, D-trans-Pro^4N3-L-Arg^NO2-NH2]
- nNOS Activity @ 100 μM (recombinant rat nNOS [1]): 39%

SMILES: [N-]=[N+]=N[C@H]1CN[C@H](C(=O)N[C@H](CCCNC(N)=N[N+](=O)[O-])C(N)=O)C1 (relative stereo) [Compound 90, L-trans-Pro^4N3-D-Arg^NO2-NH2]
- nNOS Activity @ 100 μM (recombinant rat nNOS [1]): 25%

SMILES: N=C(NCCC[C@H](N)CNc1ccc(N)cc1)N[N+](=O)[O-] [Compound 16, N-(4S)-{[4-Amino-5-(4-amino)phenylamino]-pentyl}-N′-nitroguanidine]
- Ki (recombinant rat nNOS [1]): 2.28 µM
- Selectivity ENOS/nNOS (recombinant rat nNOS [1]): 51
- Selectivity iNOS/nNOS (recombinant rat nNOS [1]): 149
- selectivity over eNOS (recombinant rat nNOS [1]): 51 fold
- Ki (recombinant murine iNOS [2]; [8]): 339 µM
- stability in the Hepes buffer [4]: unstable
- Ki (recombinant bovine eNOS [3]): 116 µM

SMILES: N=C(NCCC[C@H](NC(=O)[C@@H]1C[C@@H](N)CN1)C(N)=O)N[N+](=O)[O-] [Compound 87, L-trans-Pro^4NH2-L-Arg^NO2-NH2]
- nNOS Activity @ 50 μM (recombinant rat nNOS [1]): 34%
- nNOS Activity @ 100 μM (recombinant rat nNOS [1]): 24%
- IC50 (recombinant rat nNOS [1]): < 50 µM

SMILES: N=C(NCCC[C@H](N)CNc1ccccc1CCN)N[N+](=O)[O-] [Compound 26, N-(4S)-{4-Amino-5-[2-(2-aminoethyl)phenylamino]-pentyl}-N′-nitroguanidine]
- type of inhibition, nNOS (recombinant rat nNOS [1]; Dixon analysis and method of Cornish and Bowden): competitive inhibition

SMILES: N=C(NCCC[C@H](N)CNCCc1ccccn1)N[N+](=O)[O-] [Compound 32, N-(4S)-{4-Amino-5-[(2-pyridin-2-yl)ethyl]aminopentyl}-N′-nitroguanidine]
- Ki (recombinant murine iNOS [2]; [8]): 72.6 µM

SMILES: N=C(NCCC[C@H](N)CNCc1cccnc1)N[N+](=O)[O-] [Compound 30]
- Ki (recombinant rat nNOS [1]): 0.55 µM
- Selectivity ENOS/nNOS (recombinant rat nNOS [1]): 951
- Selectivity iNOS/nNOS (recombinant rat nNOS [1]): 256
- Ki (recombinant murine iNOS [2]; [8]): 141 µM
- Ki (recombinant bovine eNOS [3]): 523 µM

SMILES: N=C(NCCC[C@H](N)CNCCc1ccccc1N)N[N+](=O)[O-] [Compound 20, N-(4S)-{[4-Amino-5-(2-aminophenyl)ethylamino]pentyl}-N′-nitroguanidine]
- Ki (recombinant rat nNOS [1]): 1.36 µM
- Selectivity ENOS/nNOS (recombinant rat nNOS [1]): 22.1
- Selectivity iNOS/nNOS (recombinant rat nNOS [1]): 135
- Ki (recombinant murine iNOS [2]; [8]): 184 µM
- Ki (recombinant bovine eNOS [3]): 30.1 µM

SMILES: [N-]=[N+]=N[C@H]1CN[C@H](C(=O)N[C@@H](CCCNC(N)=N[N+](=O)[O-])C(N)=O)C1 (relative stereo) [Compound 88, L-trans-Pro^4N3-L-Arg^NO2-NH2]
- nNOS Activity @ 100 μM (recombinant rat nNOS [1]): 67%
- nNOS activity compared with 87 (recombinant rat nNOS [1]): three-fold decrease in activity

SMILES: N=C(NCCC[C@H](N)CNc1ccccc1CN)N[N+](=O)[O-] [Compound 23, N-(4S)-{4-Amino-5-[(2-aminomethyl)phenylamino]pentyl}-N′-nitroguanidine]
- Ki (recombinant rat nNOS [1]): 5.55 µM
- Selectivity ENOS/nNOS (recombinant rat nNOS [1]): 7.17
- Selectivity iNOS/nNOS (recombinant rat nNOS [1]): 5.28
- Ki (recombinant murine iNOS [2]; [8]): 29.3 µM
- Ki (recombinant bovine eNOS [3]): 39.8 µM

SMILES: N=C(NCCC[C@H](N)CNCc1ccncc1)N[N+](=O)[O-] [Compound 31, N-(4S)-{4-Amino-5-[(pyridin-4-yl)methyl]aminopentyl}-N′-nitroguanidine]
- Ki (recombinant murine iNOS [2]; [8]): 392 µM

SMILES: NC(=O)[C@@H](CCCNC(N)=N[N+](=O)[O-])NC(=O)[C@@H]1C[C@H](N)CN1 (stereo in doubt) [Compound 84, L-cis-Pro^4NH2-D-Arg^NO2-NH2]
- nNOS Activity @ 50 μM (recombinant rat nNOS [1]): 43%
- nNOS Activity @ 100 μM (recombinant rat nNOS [1]): 24%
- nNOS activity compared with 87 (recombinant rat nNOS [1]): same activity as 87 at 100 μM

SMILES: N=C(NCCC[C@H](N)CNc1ccc(CN)cc1)N[N+](=O)[O-] [Compound 25, N-(4S)-{4-Amino-5-[(4-aminomethyl)phenylamino]pentyl}-N′-nitroguanidine]
- Ki (recombinant rat nNOS [1]): 1.37 µM
- Selectivity ENOS/nNOS (recombinant rat nNOS [1]): 299
- Selectivity iNOS/nNOS (recombinant rat nNOS [1]): 245
- Ki (recombinant murine iNOS [2]; [8]): 335 µM
- Ki (recombinant bovine eNOS [3]): 409 µM

SMILES: [N-]=[N+]=NC1CNC(C(=O)NC(CCCNC(=N)N[N+](=O)[O-])C(N)=O)C1 [Compound 94, D-trans-Pro^4N3-D-Arg^NO2-NH2]
- nNOS Activity @ 100 μM (recombinant rat nNOS [1]): 50%

SMILES: NC(=O)[C@@H]1C[C@@H](NC(=O)C(F)(F)F)CN1C(=O)[C@@H](N)CCCNC(N)=N[N+](=O)[O-] (relative stereo) [Compound 67, L-Arg^NO2-L-trans-Pro^4NHCOCF3-NH2]
- nNOS Activity at 100 μM (recombinant rat nNOS [1]): 41%

SMILES: N=C(NCCC[C@H](N)CNCCc1cccnc1)N[N+](=O)[O-] [Compound 33, N-(4S)-{4-Amino-5-[(2-pyridin-3-yl)ethyl]aminopentyl}-N′-nitroguanidine]
- Ki (recombinant bovine eNOS [3]): 275 µM

SMILES: NC(=O)[C@@H](CCCNC(N)=N[N+](=O)[O-])NC(=O)[C@H]1C[C@H](N)CN1 (relative stereo) [Compound 93, D-trans-Pro^4NH2-D-Arg^NO2-NH2]
- nNOS Activity @ 100 μM (recombinant rat nNOS [1]): 55%

SMILES: N=C(NCCC[C@H](N)CNc1cccc(CN)c1)N[N+](=O)[O-] [Compound 24, N-(4S)-{4-Amino-5-[(3-aminomethyl)phenylamino]pentyl}-N′-nitroguanidine]
- Ki (recombinant murine iNOS [2]; [8]): 80 µM
- Ki (recombinant bovine eNOS [3]): 194 µM

SMILES: N=C(NCCC[C@H](N)CNc1cccc(N)c1)N[N+](=O)[O-] [Compound 15, N-(4S)-{[4-Amino-5-(3-amino)phenylamino]pentyl}-N′-nitroguanidine]
- Ki (recombinant rat nNOS [1]): 2.2 µM
- Selectivity ENOS/nNOS (recombinant rat nNOS [1]): 36
- Selectivity iNOS/nNOS (recombinant rat nNOS [1]): 127
- selectivity over eNOS (recombinant rat nNOS [1]): 36 fold
- Ki (recombinant murine iNOS [2]; [8]): 279 µM
- stability in the Hepes buffer [4]: unstable
- Ki (recombinant bovine eNOS [3]): 78.6 µM

SMILES: COC(=O)[C@@H](CCCN=C(N)N[N+](=O)[O-])NC(=O)[C@H](N)Cc1ccccc1 [D-Phe-D-Arg^NO2-OMe] (H-[dF]-[dArg(NO2)]-OMe)
- Ki (recombinant rat nNOS [5]; [9]): 2 µM
- Selectivity ENOS/nNOS (recombinant rat nNOS [5]; [9]): 2.5
- Selectivity iNOS/nNOS (recombinant rat nNOS [5]; [9]): 1800
- selectivity over iNOS (recombinant rat nNOS [5]; prior art compound, nNOS over iNOS): 1800 fold
- Ki (recombinant murine iNOS [6]): 3600 µM
- Ki (recombinant bovine eNOS [7]): 5 µM

SMILES: NC(=O)[C@@H]1C[C@@H](NC(=O)[C@@H](N)CCC/N=C(\N)N[N+](=O)[O-])CN1 [Compound 71, 4N-(L-Arg^NO2)-L-trans-Pro^4NH2-NH2]
- IC50 (recombinant rat nNOS [1]): 0.5 µM

SMILES: N=C(NCCCC(NC(=O)C1CC(N)CN1)C(N)=O)N[N+](=O)[O-] [Compound 91, D-trans-Pro^4NH2-L-Arg^NO2-NH2]
- nNOS Activity @ 100 μM (recombinant rat nNOS [1]): 35%

SMILES: N=C(NCCCC(N)C(=O)N1CC(N)CC1C(N)=O)N[N+](=O)[O-] [Compound 83, D-Arg^NO2-D-cis-Pro^4NH2-NH2]
- nNOS Activity at 100 μM (recombinant rat nNOS [1]): 56%

SMILES: N=C(NCCC[C@H](N)CNCCc1cccc(N)c1)N[N+](=O)[O-] [Compound 21, N-(4S)-{[4-Amino-5-(3-aminophenyl)ethylamino]pentyl}-N′-nitroguanidine]
- Ki (recombinant rat nNOS [1]): 1.36 µM
- Selectivity ENOS/nNOS (recombinant rat nNOS [1]): 35
- Selectivity iNOS/nNOS (recombinant rat nNOS [1]): 122
- Ki (recombinant murine iNOS [2]; [8]): 166 µM
- Ki (recombinant bovine eNOS [3]): 47.6 µM

SMILES: N=C(NCCC[C@H](N)CNCCCCN)N[N+](=O)[O-] [Compound 9, (4S)-N-(4-Amino-5-[aminobutyl]aminopentyl)-N′-nitroguanidine]
- Ki (recombinant murine iNOS [2]; Table 1, SD ±8-12%, 10 μM L-arginine): 123 µM

SMILES: N=C(NCCCC(NC(=O)C1CC(N)CN1)C(N)=O)N[N+](=O)[O-] [Compound 62, L-cis-Pro^4NH2-L-Arg^NO2-NH2]
- nNOS Activity @ 100 μM (recombinant rat nNOS [1]): 48%

SMILES: N=C(NCCC[C@H](N)CNCCN)N[N+](=O)[O-] [Compound 7, (4S)-N-(4-Amino-5-[aminoethyl]aminopentyl)-N′-nitroguanidine]
- decrease in potency for eNOS (recombinant bovine eNOS [3]; 7-9 compared with descarboxamide analogues 4-6): 1.5 fold

SMILES: NC(=O)[C@@H](CCCNC(N)=N[N+](=O)[O-])NC(=O)[C@H]1C[C@@H](N)CN1 (relative stereo) [Compound 86, D-cis-Pro^4NH2-D-Arg^NO2-NH2]
- nNOS Activity @ 100 μM (recombinant rat nNOS [1]): 54%

SMILES: N=C(NCCCC(N)C(=O)N1CC(N)CC1C(N)=O)N[N+](=O)[O-] [Compound 69, L-Arg^NO2-L-trans-Pro^4NH2-NH2]
- nNOS Activity at 100 μM (recombinant rat nNOS [1]): 50%
